Data reported in patent US20140158116A1, “INHIBITING TRPA1 FOR THE TREATMENT OF ASTHMA” (Cubist Pharmaceuticals, Inc., priority 2012, published 2014).

Experiments:
[1] = test system: CFA-induced cold allodynia; experiment: Complete Freund's Adjuvant (CFA) cold allodynia rodent pain model; type: in vivo; settings: vehicle 19.8
Method: The compound of Formula (Ia) is also active in rodent models of pain in vivo induced by cold allodynia following chronic Complete Freund's Adjuvant-induced inflammation, as described in Example 6. […] The compound of Formula (Ia), the comparator compound of Formula (II) and ketoprofen were tested by the CFA-induced pain test method reported in del Camino et al., J. Neurosci., 30(45):15165-15174, incorporated herein by reference in its entirety. Briefly, the hind paw was sensitized to cold temperature (allodynic), by administering 0.1 mL of Complete Freund's Adjuvant (CFA) to the left hind paw. 2-3 days later, the time taken for the animal to lift its CFA-injected paw was recorded compared to its un-injected normal right hind paw. […] To avoid tissue damage the maximum cut-off time was 5 minutes. Animals that were allodynic (average PWL to the first three pain behaviors <150 seconds for the CFA-injected hind paw: ˜≧50% difference between the normal and CFA-injected paw) were included in the study and subsequently randomized across treatment groups. The following day, the animals were dosed under blinded conditions. Following the 1-2 hour pre-treatment time, the post-dose PWL readings were again taken. The efficacy of the drug treatment was assessed by comparing the PWL in the drug treatment animals to those animals that received the vehicle.

hTRPV6 = molecular target: T1, hTRPV6 (Homo sapiens, UniProt Q9H1D0); experiment: Patch clamp selectivity, hTRPV6; type: cell-based
T1 sequence (Q9H1D0 1-765): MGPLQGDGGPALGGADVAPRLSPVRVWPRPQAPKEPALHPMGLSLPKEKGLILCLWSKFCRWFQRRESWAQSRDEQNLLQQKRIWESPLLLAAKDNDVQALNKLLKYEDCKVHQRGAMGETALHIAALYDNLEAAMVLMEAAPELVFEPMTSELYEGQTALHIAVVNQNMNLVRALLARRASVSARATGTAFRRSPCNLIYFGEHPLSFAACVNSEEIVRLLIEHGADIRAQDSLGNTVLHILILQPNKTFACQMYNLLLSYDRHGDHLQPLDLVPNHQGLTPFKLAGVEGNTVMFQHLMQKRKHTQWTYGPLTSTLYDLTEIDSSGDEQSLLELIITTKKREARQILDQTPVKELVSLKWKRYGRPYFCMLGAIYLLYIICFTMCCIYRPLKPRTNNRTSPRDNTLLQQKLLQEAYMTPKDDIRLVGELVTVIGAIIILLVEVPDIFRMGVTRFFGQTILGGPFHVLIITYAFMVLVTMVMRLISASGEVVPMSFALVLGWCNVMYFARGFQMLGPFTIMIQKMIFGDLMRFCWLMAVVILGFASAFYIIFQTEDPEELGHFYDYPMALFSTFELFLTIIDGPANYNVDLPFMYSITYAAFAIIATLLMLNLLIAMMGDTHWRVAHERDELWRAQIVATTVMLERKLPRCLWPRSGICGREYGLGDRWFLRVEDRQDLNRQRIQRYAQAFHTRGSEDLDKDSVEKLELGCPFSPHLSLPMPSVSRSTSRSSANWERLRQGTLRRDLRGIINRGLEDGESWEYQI
Method: (§1) Data for TRPA1 inhibition and the selectivity of TRPA1 inhibition was obtained by this method for the compound of Formula (Ia) and included in Table 1 and Table 2. All currents were recorded in whole-cell configuration using EPC-9 and EPC-10 amplifiers and Patchmaster software (HEKA). […] The standard pipette solution consisted of 140 mM CsAsp, 10 mM EGTA, 10 mM HEPES, 2.27 mM MgCl2, 1.91 mM CaCl2, 4 mM MgATP, and 0.1-0.3 mM Na2GTP, with pH adjusted to 7.2 with CsOH. In addition, a solution containing 145 mM CsCl, 10 mM HEPES, 10 mM EGTA and 1 mM MgCl2 (pH 7.2 adjusted with CsOH) can be used. The standard bath solution contained 150 mM NaCl, 10 mM HEPES, 10 mM glucose, 4.5 mM KCl, 1 mM EGTA, 3 mM MgCl2, with pH adjusted to 7.4 with NaOH. In some instances, 2 mM CaCl2 was added in place of EGTA and the concentration of MgCl2 was reduced to 1 mM.
(§2) Data were collected either by continuous recordings at −60 mV or by applying voltage ramps from a holding potential of 0 mV every 4 s. […] Inward and outward currents were analyzed from the ramps at −80 and 80 mV, respectively. […]
(§3) Solutions were switched using a gravity-fed continuous focal perfusion system. […] Temperatures were confirmed using a thermistor (Warner Instruments, TA-29), with temperatures at the recorded cell estimated to be within +/−2° C. of those reported. […]

hNaV1.2 = hNaV1.2 (Homo sapiens, UniProt Q99250); experiment: Patch clamp selectivity, hNaV1.2; type: cell-based
Method: as §1, §2, §3

hNaV1.2, sequence (Q99250 whole entry): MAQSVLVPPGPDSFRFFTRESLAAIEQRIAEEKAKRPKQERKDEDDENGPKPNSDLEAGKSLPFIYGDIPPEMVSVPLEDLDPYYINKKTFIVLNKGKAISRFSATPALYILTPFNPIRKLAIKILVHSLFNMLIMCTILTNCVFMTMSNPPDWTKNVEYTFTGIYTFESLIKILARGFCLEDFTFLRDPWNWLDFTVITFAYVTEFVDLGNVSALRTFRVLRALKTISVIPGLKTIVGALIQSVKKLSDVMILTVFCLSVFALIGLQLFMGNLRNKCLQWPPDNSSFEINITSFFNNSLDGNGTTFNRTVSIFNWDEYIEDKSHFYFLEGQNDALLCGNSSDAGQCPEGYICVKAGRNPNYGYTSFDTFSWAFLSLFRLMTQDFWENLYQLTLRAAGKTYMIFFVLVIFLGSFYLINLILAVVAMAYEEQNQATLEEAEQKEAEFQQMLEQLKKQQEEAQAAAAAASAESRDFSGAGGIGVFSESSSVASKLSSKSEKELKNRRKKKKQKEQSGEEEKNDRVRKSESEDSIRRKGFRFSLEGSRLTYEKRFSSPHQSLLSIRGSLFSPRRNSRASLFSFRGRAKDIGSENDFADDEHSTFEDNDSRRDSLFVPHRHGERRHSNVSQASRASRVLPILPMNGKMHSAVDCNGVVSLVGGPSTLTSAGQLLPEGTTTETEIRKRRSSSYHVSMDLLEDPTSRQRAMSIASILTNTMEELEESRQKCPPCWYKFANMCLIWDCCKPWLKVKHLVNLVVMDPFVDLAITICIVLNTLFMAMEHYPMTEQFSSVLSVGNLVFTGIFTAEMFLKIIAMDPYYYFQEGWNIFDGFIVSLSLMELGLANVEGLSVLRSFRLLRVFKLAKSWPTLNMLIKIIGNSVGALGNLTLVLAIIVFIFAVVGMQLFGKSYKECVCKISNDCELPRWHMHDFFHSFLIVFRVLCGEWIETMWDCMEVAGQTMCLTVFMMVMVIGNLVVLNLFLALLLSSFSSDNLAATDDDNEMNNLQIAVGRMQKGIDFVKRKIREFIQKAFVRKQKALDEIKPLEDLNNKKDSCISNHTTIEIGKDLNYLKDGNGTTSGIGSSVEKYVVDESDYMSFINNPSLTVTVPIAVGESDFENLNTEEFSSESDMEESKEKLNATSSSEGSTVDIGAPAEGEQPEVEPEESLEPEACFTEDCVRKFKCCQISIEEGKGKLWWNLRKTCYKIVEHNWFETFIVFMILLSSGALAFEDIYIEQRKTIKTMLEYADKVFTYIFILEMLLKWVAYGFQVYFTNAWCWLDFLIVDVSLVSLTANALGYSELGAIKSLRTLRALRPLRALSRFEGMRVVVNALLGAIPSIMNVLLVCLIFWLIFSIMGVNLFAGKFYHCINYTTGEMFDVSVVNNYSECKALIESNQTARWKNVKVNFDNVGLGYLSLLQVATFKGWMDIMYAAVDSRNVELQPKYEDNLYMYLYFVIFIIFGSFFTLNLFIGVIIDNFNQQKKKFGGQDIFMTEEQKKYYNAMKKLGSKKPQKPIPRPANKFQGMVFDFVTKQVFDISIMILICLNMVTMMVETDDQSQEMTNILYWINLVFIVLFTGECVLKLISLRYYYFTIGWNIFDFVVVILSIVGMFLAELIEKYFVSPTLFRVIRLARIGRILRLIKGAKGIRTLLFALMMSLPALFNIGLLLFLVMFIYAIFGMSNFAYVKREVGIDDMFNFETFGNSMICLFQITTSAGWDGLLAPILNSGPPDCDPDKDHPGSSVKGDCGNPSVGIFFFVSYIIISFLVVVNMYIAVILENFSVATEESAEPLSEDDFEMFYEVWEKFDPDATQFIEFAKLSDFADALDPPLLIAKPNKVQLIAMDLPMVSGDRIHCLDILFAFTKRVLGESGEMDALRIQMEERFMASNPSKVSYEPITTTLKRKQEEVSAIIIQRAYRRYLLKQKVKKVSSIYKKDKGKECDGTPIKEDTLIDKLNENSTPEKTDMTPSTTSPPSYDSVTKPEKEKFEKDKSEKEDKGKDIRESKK

Fold Selectivity Compared to TRPA1 (hTRPV6): ~370 fold | IC50 (hTRPV6; Voltage, Inward (−80 mV)): 34 µM | Fold Selectivity Compared to TRPA1 (hNaV1.2): >100 fold | IC50 (hNaV1.2; Voltage, Peak Inward (0 mV)): > 10 µM
Structure (SMILES): C[C@H]1CCCN1c1ncc(-c2cccc(NC(=O)Cn3cnc4c3c(=O)n(C)c(=O)n4C)n2)cn1 [Formula (Ia)]
Change in Paw Withdrawal Latency ([1]; 1 mg/kg i.p., cold plate): 38.4 | Change in Paw Withdrawal Latency ([1]; 5 mg/kg i.p.): 45.0 | Change in Paw Withdrawal Latency ([1]; 10 mg/kg i.p.): 117.6 | Change in Paw Withdrawal Latency ([1]; 30 mg/kg i.p.): 134.4 | Change in Paw Withdrawal Latency ([1]; 50 mg/kg i.p.): 177.8
